Assay results reported in US10233201B2, “Class of HDAC inhibitors expands the renal progenitor cells population and improves the rate of recovery from acute kidney injury” (University of Pittsburgh—Of the Commonwealth System of …, priority 2012, dated 2019).

How the values were obtained:
zebrafish larvae = assay: Phenotypic scoring of edema and survival in zebrafish larvae at 72 hpf; format: in vivo; conditions: 25 μM PBA, 200 nM TSA
Excerpt: (§1) PTBA was synthesized as described below. Hydroxyurea and aphidicolin were obtained from Sigma-Aldrich.
Wild type: no visible edema or developmental delay.

[1] = tested on: renal progenitor cells (lhx1a expression); assay: In situ hybridization for lhx1a expression in 10-somite embryos (renal progenitor cell expansion); format: in vivo; on lhx1a expansion class, 200 nM: key: effective (+); partially effective (+/−); ineffective (−); Analogs that killed all embryos at a given concentration before reaching 10 somites are listed as XX; on lhx1a expansion class, 400 nM: key: effective (+); partially effective (+/−); ineffective (−); Analogs that killed all embryos at a given concentration before reaching 10 somites are listed as XX; on lhx1a expansion class, 800 nM: key: effective (+); partially effective (+/−); ineffective (−); Analogs that killed all embryos at a given concentration before reaching 10 somites are listed as XX
Protocol: as §1
(§2) In situ hybridization and immunocytochemistry: In situ hybridization was performed as previously described with some modifications. 142 Hybridization temperature was 65° C. Embryos were blocked in 2% blocking reagent (Roche) with 5% sheep serum in MAB (100 mM maleic acid and 150 mM NaCl [pH 7.5]). Whole-mount immunocytochemistry with 1:25 mouse anti-α6F antibody (Developmental Studies Hybridoma Bank) and 1:100 Cy3 secondary antibody (Jackson ImmunoResearch) was performed as described previously. 108 Embryos were embedded in JB-4 for sectioning per the manufacturer's instructions (Polysciences), sectioned at 5 μm, and mounted with Cytoseal 60 (Richard-Allan Scientific).
The remaining PTBA analogs were synthesized.
In situ hybridization for lhx1a was performed as described above. […] Compounds were classified as effective, partially-effective or ineffective based on comparison to the effects of PTBA at a given concentration.
Testing of the compounds is on-going, but for those tested, Table 3 provides first pass EC50s based upon colormetric in situ hybridizations for the Lhx1a mRNA expression levels. After the procedure is run, in situ hybridization is done for the lhx1 mRNA expression and the number of embryos that show an expanded kidney field is manually counted to establish the percent of embryos showing expansion. Then the EC50 is determined by plotting the percent expansion in Excel, graphing the results and using the trendline function to determine the 50 percent point. […] For UPHD-00186, the 4 values for EC50 are shown in Table 3 for the corresponding expression in zebrafish embryos employed an artificial intelligence-based image analysis method termed cognition network technology (CNT) for n=4.

[2] = tested on: myod1 (somites), fli1a (vasculature), ntla (notochord); assay: In situ hybridization for mesodermal markers myod1, fli1a, ntla in 10-somite embryos; format: in vivo, zebrafish; conditions: 25 μM PBA
Protocol: as §1, §2

[3] = tested on: human HDACs (HeLa cell nuclear extract); assay: Fluorescence histone deacetylation assay with HeLa cell nuclear extract; format: biochemical; conditions: 5 mM compound, 10 μg HeLa extract
Protocol: To evaluate this in vitro, the deacetylation of a fluorescent peptide substrate was measured in the presence of human HDACs.
In vitro HDAC activity assays were performed using a fluorescence HDAC assay kit (Active Motif) according to the manufacturer's instructions. For maintaining compound solubility at 5 mM, the final DMSO concentration in all assay wells was increased to 5%. Fluorescence was detected using an M5 Plate Reader ([…])

histone H4 acetylation = assay: Histone H4 hyperacetylation Western blot in embryos; format: in vivo, zebrafish; conditions: 24 hpf embryos treated 6 hours; 3 μM PTBA, 25 μM PBA, 200 nM TSA
Protocol: It was next determined whether the HDACi function of PTBA was quantifiable in vivo. 24 hpf embryos were treated with 3 μM PTBA, 25 μM PBA, or 200 nM TSA for 6 hours. Protein extracts were prepared and immunoblotted with an anti-hyperacetylated histone H4 antibody. […] Furthermore, increasing the compound concentration caused a corresponding increase in hyperacetylation (FIG. 21).
SDS-PAGE and Western blotting were performed as described previously with some modifications (Noel, E. S. et al. Organ-specific requirements for Hdac1 in liver and pancreas formation. Dev Biol 322, 237-250, (2008)). Proteins were separated on 18% SDS-PAGE gels. Membranes were incubated at 4° C. overnight with 1:1000 anti-hyperacetylated histone H4 antibody (06-946, Millipore) or 1:1000 anti-α-tubulin antibody (Sigma-Aldrich) in PBT containing 5% nonfat milk.

[4] = tested on: HDAC activity in DSI9 mouse erythroleukemia cells; conditions: 5 mM; cited from earlier work
[5] = tested on: CD1 mice, folic acid-induced injury; assay: Folic acid-induced AKI; format: in vivo, mouse; conditions: daily IP 50 mg/ml in 30% PEG300 from 24 hrs after folic acid; after 15 days
Protocol: FIG. 41 are photomicrographs showing the results of an AKI model using folic acid-induced injury. Folic acid is administered to CD1 mice (n=6/group) intraperitoneally (IP) at 250 mg/ml in 0.3M NaHCO3. Compound UPHD-00022 was injected daily IP at […] in 30% PEG300 vehicle starting 24 hrs after folic acid treatment. Kidney tissue was stained using Trichrome and Sirus Red stained after 15 days. Blue in trichrome and the red in sirus red indicates fibrotic (scar) tissue.

[6] = tested on: mouse models of unilateral ureteral obstruction (UUO); assay: Unilateral ureteral obstruction (UUO); format: in vivo; conditions: IP days 0 to 6, kidneys harvested at day 7
Excerpt: The model of unilateral ureteral obstruction generates progressive renal fibrosis. Surgically created UUO can be experimentally manipulated with respect to timing, severity, and duration, while reversal of the obstruction permits the study of recovery.
FIG. 47 represents the results of the testing of compounds UPHD-00022, UPHD-00025 (PTBA), UPHD-00029, UPHD-00036, and UPHD-00186, for their efficacy in mouse models of unilateral ureteral obstruction (UUO) as follows: in the UUO models, one ureter was ligated for 7 days and compounds were delivered via IP for days 0 to 6. At day 7 kidneys were harvested for Sirius red staining. […] Therefore, in the models tested, the only compound proven to be effective in all models and with significant delayed onset of treatment is UPHD-186.

[7] = lhx1a in situ hybridization, includes repeats* and recounts

SMILES | death (lethality) by 72 hpf (zebrafish larvae; n=90) [%] | larvae with edemic phenotype / pericardial edema at 72 hpf (zebrafish larvae; treated from 2 hpf, 3 μM PTBA) [%] | concentration producing lhx1a expansion consistent with 3 μM PTBA ([1]; 10-somite embryos) [µM] | embryos with decreased myod1 expression ([2]; 3 μM PTBA (slightly decreased), 200 nM TSA) [%] | embryos with increased ntla expression ([2]; 3 μM PTBA) [%] | embryos with decreased fli1a expression ([2]; 200 nM TSA) [%] | HDAC activity, % of the control value [3] [%] | histone H4 hyperacetylation (histone H4 acetylation) | HDAC activity, % of the control value [4] [%] | lhx1a expansion class, 200 nM ([1]; 200 nM from 2 hpf) | lhx1a expansion class, 400 nM ([1]; 400 nM from 2 hpf) | lhx1a expansion class, 800 nM ([1]; 800 nM from 2 hpf) | responders at 0.4 µM ([1]; Danio rerio, 400 nM, read-out: embryos with expanded lhx1a expression (% expansion)) [%] | responders at 0.8 µM ([1]; Danio rerio, 800 nM, read-out: embryos with expanded lhx1a expression (% expansion)) [%] | Expansion of Cells, 800 nM [1, 7] [%] | Expansion of Cells, 1.5 μM [1, 7] [%] | Expansion of Cells, 3 μM [1, 7] [%] | renal fibrosis (Trichrome and Sirus Red) [5] | fibrosis (Sirius red) and expression of fibrosis markers in UUO kidney [6]
O=C(O)CCCc1ccccc1 [PBA, 4-phenylbutanoic acid] | 8 | 23 | 25 | 57 | 87 | 78 | 30 | hyperacetylation was observed | 19 |  |  |  |  |  |  |  |  |  | 
COC(=O)CCCSc1ccc(OC)cc1 [UPHD-00022, methyl 4-[(4-methoxyphenyl)sulfanyl]butanoate] |  |  |  |  |  |  |  |  |  | − | +/− | + | 29 | 57 | 57 | 91 | 100 | a reduction in fibrosis is seen | reduce both fibrosis and expression of fibrosis markers
